Measured values: patent US12391687B2, “Five-and-six-membered heterocyclic compound and use thereof as protein receptor kinase inhibitor” (SHANGHAI ENNOVABIO PHARMACEUTICALS CO., LTD., priority 2018, dated 2025)

How the values were obtained:
[1] = target: recombinant human TRKA (G595R) (Homo sapiens (Human), UniProt P04629, G595R); test: In vitro activity test on mutant TRKA (G595R) (HTRF kinEASE TK); format: biochemical; conditions: 4.5 μM ATP, 30 min, room temperature; read-out: TRKA (G595R) IC 50
Description: The recombinant human TRKA (G595R), TRKA (G667C) and TRKC (G623R) proteins were purchased from SignalChem. HTRF kinEASE TK kit was purchased from Cisbio Bioassays. Synergy Neo 2 of Biotek was used to read the plate.
The tested compounds were subjected to 4-fold serial dilution to reach a final concentration of 1 μM to 0.004 nM (10 concentrates), duplicates for each concentration; and the final concentration of DMSO in the reaction was 1%.
0.12 ng/μL TRKA (G595R) kinase, 1 μM TK Substrate-biotin polypeptide substrate, 4.5 μM ATP, 1× enzymatic buffer, 5 mM MgCl2, and 1 mM DTT. The assay plate was White Proxiplate384-Plus plate (PerkinElmer), and the reaction was incubated at room temperature for 30 min, and the assay volume was 10 μL.
10 μL of detection reagent (containing 0.125 μM SA-XL665 and 5 μL 1×TK-Antibody) was added to the plate and incubated overnight at room temperature, and Synergy Neo 2 was used to read the plate.
(§1) The value of 665/620 Ratio minus the value of negative control wells without enzyme, then the obtained value was converted according to the following formula into inhibition rate (%)=(1−Ratiotest/Ratiomax)×100%. Ratiomax was the value of positive controls without tested compound, and Ratiotest was the value of each concentration of different compounds. IC50 (nM) data was obtained by 4 parameter curve fitting (see Table 3).

Recombinant human TRKC = Recombinant human TRKC (Homo sapiens (Human), UniProt Q16288); test: In vitro activity test on TRKC kinase (HTRF kinEASE TK); format: biochemical; conditions: 25.64 μM ATP, 40 min, room temperature
Description: (§2) Recombinant human TRKA, TRKB, TRKC proteins were purchased from Carna Biosciences. HTRF kinEASE TK kit was purchased from Cisbio Bioassays. Synergy Neo 2 of Biotek was used to read the plate.
(§3) The tested compounds were subjected to 3-fold serial dilution to reach a final concentration of 1 μM to 0.05 nM (10 concentrations), duplicates for each concentration; and the DMSO concentration in the detection reaction was 1%.
(§4) 0.037 ng/μL TRKC protein kinase, 1 μM TK Substrate-biotin polypeptide substrate, 25.64 μM ATP, 1× enzymatic buffer, 5 mM MgCl2, and 1 mM DTT. The detection plate was White Proxiplate 384-Plus plate (PerkinElmer), the reaction was incubated at room temperature for 40 min, and the assay volume was 10 μL.
(§5) 10 μL of detection reagent (containing 0.125 μM SA-XL665 and 5 μL 1×TK-Antibody) was added to the plate and incubated overnight at room temperature. Synergy Neo 2 was used to read the plate.
as §1, with “The” for “The value of”, “Ratio” for “Ratio minus the value of negative control wells without enzyme, then the obtained value”, “1).” for “3).”

Recombinant human TRKB = Recombinant human TRKB (Homo sapiens (Human), UniProt Q16620); test: In vitro activity test on TRKB kinase (HTRF kinEASE TK); format: biochemical; conditions: 4.77 μM ATP, 50 min, room temperature
Description: as §2, §3
as §4, with “TRKB” for “TRKC”, “4.77” for “25.64”, “MgCl2, 1 mM MnCl2” for “MgCl2,”, “assay” for “detection”, “50” for “40”
as §5
as §1, with “The” for “The value of”, “Ratio” for “Ratio minus the value of negative control wells without enzyme, then the obtained value”, “1).” for “3).”

Recombinant human TRKA = Recombinant human TRKA (Homo sapiens (Human), UniProt P04629); test: In vitro activity test on TRKA kinase (HTRF kinEASE TK); format: biochemical; conditions: 14.68 μM ATP, 40 min, room temperature
Description: as §2, §3
0.2 ng/μL TRKA protein kinase, 1 μM TK Substrate-biotin polypeptide substrate, 14.68 μM ATP, 1×enzymatic buffer, 5 mM MgCl2, and 1 mM DTT. The assay plate was White Proxiplate384-Plus plate (PerkinElmer), and the reaction was incubated at room temperature for 40 min, and the assay volume was 10 μL.
as §5
as §1, with “The” for “The value of”, “Ratio” for “Ratio minus the value of negative control wells without enzyme, then the obtained value”, “1).” for “3).”

KM12-LUC cells = test: KM12-LUC cell proliferation experiment (CellTiter-Glo); format: cell-based; conditions: human colon cancer cell line with TPM3-NTRK1 fusion, 72 hours
Description: Human colon cancer cell line KM12-LUC (LUC, stably expressing Luciferase) expressing TPM3-NTRK1 fusion gene was used to evaluate cellular activity of the compounds. The TRK fusion gene in KM12-LUC cells makes the sustained activation of TRK and the downstream signaling pathways associated with cell proliferation such as MAPK-ERK, PI3K-AKT, etc independent of the stimulation of extracellular growth factor. […] The method was as follows: On the first day, the cells were seeded into 384-well plates at 2000 cells/well; on the second day, different concentrations of test compounds were added; and on the 5th day, CellTiter-Glo (Promega) was added to detect cell viability, and the cell proliferation inhibition rate at 72 hours was calculated. Statistical analysis was carried out by PRISM5 and the IC50 of the test compounds was calculated.

Sequence of Recombinant human TRKB (Q16620 32-822): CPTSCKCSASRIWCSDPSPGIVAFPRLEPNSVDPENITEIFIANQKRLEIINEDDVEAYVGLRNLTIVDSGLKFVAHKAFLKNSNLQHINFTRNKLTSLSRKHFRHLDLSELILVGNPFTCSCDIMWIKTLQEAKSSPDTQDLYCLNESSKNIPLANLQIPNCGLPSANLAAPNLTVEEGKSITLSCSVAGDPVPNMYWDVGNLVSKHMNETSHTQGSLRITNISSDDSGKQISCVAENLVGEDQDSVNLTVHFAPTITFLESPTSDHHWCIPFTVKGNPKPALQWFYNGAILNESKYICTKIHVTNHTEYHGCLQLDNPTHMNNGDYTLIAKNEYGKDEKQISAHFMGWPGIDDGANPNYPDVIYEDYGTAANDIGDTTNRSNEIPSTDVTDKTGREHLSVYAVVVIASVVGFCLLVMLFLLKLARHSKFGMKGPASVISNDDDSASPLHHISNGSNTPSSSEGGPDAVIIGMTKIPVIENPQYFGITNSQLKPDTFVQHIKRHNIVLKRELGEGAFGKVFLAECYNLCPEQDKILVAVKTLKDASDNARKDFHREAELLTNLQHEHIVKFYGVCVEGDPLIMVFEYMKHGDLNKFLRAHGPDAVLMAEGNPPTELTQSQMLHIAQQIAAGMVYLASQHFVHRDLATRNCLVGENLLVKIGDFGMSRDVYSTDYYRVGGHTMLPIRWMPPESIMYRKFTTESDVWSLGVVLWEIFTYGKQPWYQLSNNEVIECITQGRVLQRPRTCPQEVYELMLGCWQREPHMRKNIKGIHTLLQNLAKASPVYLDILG
Sequence of Recombinant human TRKC (Q16288 32-839): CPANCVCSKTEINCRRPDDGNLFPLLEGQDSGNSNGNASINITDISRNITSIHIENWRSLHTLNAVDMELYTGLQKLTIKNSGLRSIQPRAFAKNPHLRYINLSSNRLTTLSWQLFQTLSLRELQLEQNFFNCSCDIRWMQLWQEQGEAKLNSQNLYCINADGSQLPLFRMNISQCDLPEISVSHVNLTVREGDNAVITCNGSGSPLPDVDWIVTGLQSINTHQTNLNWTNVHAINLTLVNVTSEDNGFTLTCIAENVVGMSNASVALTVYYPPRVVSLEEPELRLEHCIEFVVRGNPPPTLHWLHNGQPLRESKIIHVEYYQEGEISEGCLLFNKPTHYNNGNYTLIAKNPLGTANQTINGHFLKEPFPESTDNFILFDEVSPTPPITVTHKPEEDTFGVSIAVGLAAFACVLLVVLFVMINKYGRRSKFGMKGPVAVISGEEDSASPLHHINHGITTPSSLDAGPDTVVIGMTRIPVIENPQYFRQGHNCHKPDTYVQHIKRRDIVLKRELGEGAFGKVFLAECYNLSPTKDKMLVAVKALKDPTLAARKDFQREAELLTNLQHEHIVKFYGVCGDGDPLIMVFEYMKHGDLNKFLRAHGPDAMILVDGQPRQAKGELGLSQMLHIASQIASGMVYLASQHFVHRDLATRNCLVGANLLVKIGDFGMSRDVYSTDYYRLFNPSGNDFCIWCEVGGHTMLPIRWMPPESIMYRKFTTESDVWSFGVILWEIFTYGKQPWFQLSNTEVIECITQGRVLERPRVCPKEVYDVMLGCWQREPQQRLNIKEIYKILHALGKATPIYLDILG
Sequence of Recombinant human TRKA (P04629 33-796): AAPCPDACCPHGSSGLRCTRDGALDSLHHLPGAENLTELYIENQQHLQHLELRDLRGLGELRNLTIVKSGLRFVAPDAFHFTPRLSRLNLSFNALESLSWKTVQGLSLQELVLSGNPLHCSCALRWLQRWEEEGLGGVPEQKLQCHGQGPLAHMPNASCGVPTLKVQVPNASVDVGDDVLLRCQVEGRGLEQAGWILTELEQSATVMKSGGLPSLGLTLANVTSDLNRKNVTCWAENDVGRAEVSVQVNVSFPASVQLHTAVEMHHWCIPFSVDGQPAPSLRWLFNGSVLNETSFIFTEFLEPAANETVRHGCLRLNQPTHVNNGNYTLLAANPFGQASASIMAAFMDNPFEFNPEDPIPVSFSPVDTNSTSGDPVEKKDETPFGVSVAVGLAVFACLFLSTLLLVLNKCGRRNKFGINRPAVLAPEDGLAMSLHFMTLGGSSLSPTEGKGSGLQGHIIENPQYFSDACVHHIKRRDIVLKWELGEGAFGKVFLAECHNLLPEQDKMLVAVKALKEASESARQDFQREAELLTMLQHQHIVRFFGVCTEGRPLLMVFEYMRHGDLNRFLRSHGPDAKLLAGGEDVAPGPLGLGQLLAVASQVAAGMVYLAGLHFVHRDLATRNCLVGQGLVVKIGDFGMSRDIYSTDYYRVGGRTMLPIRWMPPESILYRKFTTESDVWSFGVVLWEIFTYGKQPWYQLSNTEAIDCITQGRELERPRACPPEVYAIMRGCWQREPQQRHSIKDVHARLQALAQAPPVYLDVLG
Sequence of recombinant human TRKA (G595R) (P04629 33-796 G595R): as the sequence (P04629 33-796) above, with G563R counted along it

Row | Compound | IC50 [1] [nM] | IC50 (Recombinant human TRKC) [nM] | IC50 (Recombinant human TRKB) [nM] | IC50 (Recombinant human TRKA) [nM] | IC50 (KM12-LUC cells) [nM]
1 | NC(=O)c1cnc2[nH]nc(N3C[C@@H](F)C[C@@H]3c3cc(F)ccc3F)c2c1 [Example 5, 3-((2R,4S)-2-(2,5-difluorophenyl)-4-fluoropyrrolidin-1-yl)-1H-pyrazolo[3,4-b]pyridine-5-carboxamide] | < 10 | < 10 | < 10 | < 10 | < 10
2 | COC(=O)c1cnc2[nH]nc(N3C[C@@H](F)C[C@@H]3c3cc(F)ccc3F)c2c1 [Example 13, Methyl 3-((2R,4S)-2-(2,5-difluorophenyl)-4-fluoropyrrolidin-1-yl)-1H-pyrazolo[3,4-b]pyridine-5-carboxylate] | < 1 | < 1 | < 1 | < 1 | 
3 | O=C(O)c1cnc2[nH]nc(N3C[C@@H](F)C[C@@H]3c3cc(F)ccc3F)c2c1 [Example 17, 3-((2R,4S)-2-(2,5-difluorophenyl)-4-fluoropyrrolidin-1-yl)-1H-pyrazolo[3,4-b]pyridine-5-carboxylic acid] | < 10 | < 1 | < 1 | < 1 | 
4 | CN(C)C(=O)c1cnc2[nH]nc(N3C[C@@H](F)C[C@@H]3c3cc(F)ccc3F)c2c1 [Example 18, 3-((2R,4S)-2-(2,5-difluorophenyl)-4-fluoropyrrolidin-1-yl)-N,N-dimethyl-1H-pyrazolo[3,4-b]pyridine-5-carboxamide] |  | < 500 | < 500 | < 500 | 
5 | CC(C)OC(=O)c1cnc2[nH]nc(N3C[C@@H](F)C[C@@H]3c3cc(F)ccc3F)c2c1 [Example 19, isopropyl 3-((2R,4S)-2-(2,5-difluorophenyl)-4-fluoropyrrolidin-1-yl)-1H-pyrazolo[3,4-b]pyridine-5-carboxylate] | < 1 | < 1 | < 1 | < 1 | 
6 | Fc1ccc(F)c([C@H]2C[C@H](F)CN2c2n[nH]c3ncc(-c4cn[nH]c4)cc23)c1 [Example 20, 3-((2R,4S)-2-(2,5-difluorophenyl)-4-fluoropyrrolidin-1-yl)-5-(1H-pyrazol-4-yl)-1H-pyrazolo[3,4-b]pyridine] | < 1 | < 1 | < 1 | < 1 | < 10
7 | Fc1ccc(F)c([C@H]2C[C@H](F)CN2c2n[nH]c3ncc(-c4nn[nH]n4)cc23)c1 [Example 21, 3-((2R,4S)-2-(2,5-difluorophenyl)-4-fluoropyrrolidin-1-yl)-5-(2H-tetrazol-5-yl)-1H-pyrazolo[3,4-b]pyridine] | < 1 | < 1 | < 1 | < 1 | 
8 | O=C1CC(n2cc(-c3cnc4[nH]nc(N5C[C@@H](F)C[C@@H]5c5cc(F)ccc5F)c4c3)cn2)CCN1 (stereo partly drawn) [Example 23, 4-(4-(3-((2R,4S)-2-(2,5-difluorophenyl)-4-fluoropyrrolidin-1-yl)-1H-pyrazolo[3,4-b]pyridin-5-yl)-1H-pyrazol-1-yl)piperidin-2-one] |  | < 10 | < 10 | < 10 | 
9 | CS(=O)(=O)n1cc(-c2cnc3[nH]nc(N4C[C@@H](F)C[C@@H]4c4cc(F)ccc4F)c3c2)cn1 [Example 27, 3-((2R,4S)-2-(2,5-difluorophenyl)-4-fluoropyrrolidin-1-yl)-5-(1-(methylsulfonyl)-1H-pyrazol-4-yl)-1H-pyrazolo[3,4-b]pyridine] | < 1 | < 1 | < 1 | < 1 | 
10 | Fc1ccc(F)c([C@H]2C[C@H](F)CN2c2n[nH]c3ncc(-c4cnn(C5CCOCC5)c4)cc23)c1 [Example 28, 3-((2R,4S)-2-(2,5-difluorophenyl)-4-fluoropyrrolidin-1-yl)-5-(1-(tetrahydro-2H-pyran-4-yl)-1H-pyrazol-4-yl)-1H-pyrazolo[3,4-b]pyridine] | < 1 | < 1 | < 1 | < 1 | 
11 | Fc1ccc(F)c([C@H]2C[C@H](F)CN2c2n[nH]c3ncc(-c4cnn(COCc5ccccc5)c4)cc23)c1 [Example 31, 5-(1-((benzyloxy)methyl)-1H-pyrazol-4-yl)-3-((2R,4S)-2-(2,5-difluorophenyl)-4-fluoropyrrolidin-1-yl)-1H-pyrazolo[3,4-b]pyridine] | < 10 | < 10 | < 1 | < 10 | 
12 | Fc1ccc(F)c([C@H]2C[C@H](F)CN2c2n[nH]c3ncc(-c4cnn(CC5CNC5)c4)cc23)c1 [Example 34, 5-(1-(azetidin-3-ylmethyl)-1H-pyrazol-4-yl)-3-((2R,4S)-2-(2,5-difluorophenyl)-4-fluoropyrrolidin-1-yl)-1H-pyrazolo[3,4-b]pyridine] | < 10 | < 1 | < 1 | < 1 | 
13 | COCc1nnc(-c2cnc3c(c2)c(N2C[C@@H](F)C[C@@H]2c2cc(F)ccc2F)nn3COC)o1 [Example 38, 2-(3-((2R,4S)-2-(2,5-difluorophenyl)-4-fluoropyrrolidin-1-yl)-1-(methoxymethyl)-1H-pyrazolo[3,4-b]pyridin-5-yl)-5-(methoxymethyl)-1,3,4-oxadiazole] |  | < 100 | < 10 | < 100 | 
14 | NNC(=O)c1cnc2[nH]nc(N3C[C@@H](F)C[C@@H]3c3cc(F)ccc3F)c2c1 [Example 39, 3-((2R,4S)-2-(2,5-difluorophenyl)-4-fluoropyrrolidin-1-yl)-1H-pyrazolo[3,4-b]pyridine-5-carbohydrazide] |  | < 1 | < 1 | < 1 | 
15 | Cc1cn(CC(F)F)nc1-c1cnc2[nH]nc(N3C[C@@H](F)C[C@@H]3c3cc(F)ccc3F)c2c1 [Example 40, 5-(1-(2,2-difluoroethyl)-4-methyl-1H-pyrazol-3-yl)-3-((2R,4S)-2-(2,5-difluorophenyl)-4-fluoropyrrolidin-1-yl)-1H-pyrazolo[3,4-b]pyridine] | < 10 | < 1 | < 1 | < 1 | 
16 | Fc1ccc(F)c([C@H]2C[C@H](F)CN2c2n[nH]c3ncc(-c4nnc(COC(F)(F)F)o4)cc23)c1 [Example 41, 2-(3-((2R,4S)-2-(2,5-difluorophenyl)-4-fluoropyrrolidin-1-yl)-1H-pyrazolo[3,4-b]pyridin-5-yl)-5-((trifluoromethoxy)methyl)-1,3,4-oxadiazole] | < 1 | < 1 | < 1 | < 1 | 
17 | O=C(c1n[nH]c2nccc(N[C@@H]3CCC[C@H]3O)c12)N1C[C@@H](F)C[C@@H]1c1cc(F)ccc1F [Example 43, ((2R,4S)-2-(2,5-difluorophenyl)-4-fluoropyrrolidin-1-yl)(4-(((1R,2R)-2-hydroxycyclopentyl)amino)-1H-pyrazolo[3,4-b]pyridin-3-yl)methanone] | < 1 | < 1 | < 1 | < 1 | 
